PMC5424463, “A strategy based on nucleotide specificity leads to a subfamily-selective and cell-active inhibitor of N ^6-methyladenosine demethylase FTO” (Chemical Science, 2014)
“And” between values parts separate entries of the source, which are not always exact repeats. Equal entries are not always repeated.

What follows are compounds tested against T1, ALKBH3 (Homo sapiens, UniProt Q96Q83) (assay: Differential scanning fluorimetry (DSF)-based binding assay, ALKBH3). Conditions: DSF, 100 μM compound, 2 μM protein, 50 μM MnCl2; read-out: Tm shift (ALKBH3).
T1 construct: Human ALKBH3 (encompassing residues 1- 286); purchased ProSpec-Tany Technogene Ltd, Israel
T1 sequence (Q96Q83 1-286): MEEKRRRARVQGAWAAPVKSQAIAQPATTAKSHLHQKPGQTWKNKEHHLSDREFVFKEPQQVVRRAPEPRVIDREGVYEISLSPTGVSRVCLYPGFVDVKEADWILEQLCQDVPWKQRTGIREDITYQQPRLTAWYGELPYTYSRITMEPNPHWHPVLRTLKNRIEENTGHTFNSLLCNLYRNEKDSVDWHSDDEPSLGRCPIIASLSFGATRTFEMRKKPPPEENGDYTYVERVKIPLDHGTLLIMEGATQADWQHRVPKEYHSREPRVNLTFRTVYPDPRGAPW
Protocol: Superdex-200 column (GE Healthcare) pre-equilibrated with 20 mM HEPES, pH 7.5, 300 mM NaCl, 10% (v/v) glycerol, 0.5 mM TCEP. […]
Differential scanning fluorimetry (DSF)-based binding assay
DSF-based binding assay was performed using a MiniOpticon™ Real-Time PCR Detection System (Bio-Rad), monitoring protein unfolding using SYPRO orange (Invitrogen) according to the reported method.[16] FAM (492 nm) and ROX (610 nm) filters were used for excitation and emission respectively. Reaction mixes contained 2 μM protein, 50 μM MnCl2, 100 μM compounds, 5x SYPRO orange in a final volume of 50 μl. Reagents were prepared in 50mM HEPES buffer, pH 7.5 except metals, which were dissolved as 100 mM stocks in 20 mM HCl, then further diluted in MilliQ water. Compounds tested were prepared in 100% DMSO and added such that the final concentration of DMSO was not more than 1% v/v of assay […]
mix. Fluorescence readings were taken every 1°C in the range 25-95°C, with the temperature increased linearly by 1°C min -1. The software provided was used to perform global minimum subtraction. The inflection point, representing Tm, was calculated by fitting the Boltzmann equation to the sigmoidal curves obtained; data were processed using GraphPad Prism 6.0™.
The Tm shift caused by the addition of small molecules/ fragments was determined by subtraction of the “reference” Tm (protein incubated with metal and 1% v/v DMSO) from the Tm obtained in the presence of the compound. The assay was performed in triplicate for each inhibitor, with standard deviations typically < 1°C. […]

**Q.** `O=C(O)C=CC(=O)NNC(=O)c1cc(Cc2ccccc2)ccn1` [Compound 22] was tested. Which ΔTm at 100 µM did it give?
**A.** 3.5 °C

**Q.** For `O=C(O)/C=C/C(=O)NNC(=O)c1cnccc1Cc1ccccc1` [Compound 12], which ΔTm at 100 µM is on record?
**A.** 3.2 °C

**Q.** Which ΔTm at 100 µM does the source give for `O=C(O)/C=C/C(=O)NNC(=O)c1cccnc1` [Compound 21] here?
**A.** 2.5 °C

**Q.** Which ΔTm at 100 µM does the source give for `O=C(O)/C=C/C(=O)NNC(=O)c1ccccn1` [Compound 23] here?
**A.** 2 °C

What follows are compounds tested against T2, AlkB (Escherichia coli, UniProt P05050) (assay: HPLC-based inhibition assay for AlkB, m1A-ssDNA substrate). Conditions: not given.
T2 construct: made in house; host or cells: E. coli BL21 (DE3) Rosetta T1R
T2 sequence (P05050 12-216): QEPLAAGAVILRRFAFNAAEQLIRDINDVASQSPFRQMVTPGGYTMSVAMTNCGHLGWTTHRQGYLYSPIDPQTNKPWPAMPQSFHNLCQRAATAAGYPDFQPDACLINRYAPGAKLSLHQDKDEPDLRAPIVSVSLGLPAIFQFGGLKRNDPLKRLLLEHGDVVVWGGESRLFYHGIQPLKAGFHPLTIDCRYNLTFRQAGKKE
Type: biochemical
Protocol: (§1) HPLC-based inhibition assays for AlkB and ALKBH2
(§2) The assay was modified from previously reported method.[18] A 15-mer m1A-ssDNA substrate with the sequence 5’-AAAGCAG(m1A)ATTCGAA-3 ’ (Yale University, W.M.
(§3) Keck Foundation Biotechnology Resource Laboratory) was used in this inhibition assay. The assay was performed in triplicate for each inhibitor, in a final reaction volume of 25 µL.
(§4) Reaction consisted of AlkB (1 µM) or ALKBH2 (2 µM), 2OG (50 µM), (NH4)2Fe(SO4)2·6H2O (50 µM), L-ascorbate (2 mM), m1A-ssDNA substrate (10 µM), in 50 mM HEPES buffer, pH 7.5, and inhibitor at various concentrations (final DMSO concentration not more than 1% v/v of assay mix). The reaction was incubated at 4°C for 10 min, before analysis on a bio-inert HPLC system. The m1A-ssDNA substrate and the corresponding demethylated product were separated using a Dionex DNAPac PA200 anion-exchange column (8 µm, […]) with a gradient of 98% solvent A (50 mM sodium citrate buffer, pH 5.5) to 65% solvent B (50 mM sodium citrate buffer, pH 5.5 with 1.25 M sodium chloride) over 18 min, at a flow rate of 1 mL/min at 40°C. The UV detection wavelength was set at 266 nm. The percentage inhibition was estimated based on the peak areas of the m1A-ssDNA substrate and the corresponding demethylated product. For IC50 determination, eight different concentrations of inhibitors were used (0, 1, 3, 10, 30, 100, 300, […]
(§5) different inhibitor concentrations, using nonlinear regression, with normalized dose-response fit on GraphPad Prism 6.0™. […]

**Q.** `O=C(O)C=CC(=O)NNC(=O)c1cc(Cc2ccccc2)ccn1` [Compound 22] was tested. Which IC50 did it give?
**A.** 67.1 µM

**Q.** With `O=C(O)/C=C/C(=O)NNC(=O)c1cnccc1Cc1ccccc1` [Compound 12] as the compound, how does the IC50 read?
**A.** 33.5 µM

**Q.** For `O=C(O)/C=C/C(=O)NNC(=O)c1cccnc1` [Compound 21], which IC50 is on record?
**A.** 169 µM

**Q.** With `O=C(O)/C=C/C(=O)NNC(=O)c1ccccn1` [Compound 23] as the compound, how does the IC50 read?
**A.** 181 µM

What follows are compounds tested against T3, ALKBH2 (Homo sapiens, UniProt Q6NS38) (assay: HPLC-based inhibition assay for ALKBH2, m1A-ssDNA substrate). Conditions: not given.
T3 construct: made in house; host or cells: E. coli BL21 (DE3)
T3 sequence (Q6NS38 56-258): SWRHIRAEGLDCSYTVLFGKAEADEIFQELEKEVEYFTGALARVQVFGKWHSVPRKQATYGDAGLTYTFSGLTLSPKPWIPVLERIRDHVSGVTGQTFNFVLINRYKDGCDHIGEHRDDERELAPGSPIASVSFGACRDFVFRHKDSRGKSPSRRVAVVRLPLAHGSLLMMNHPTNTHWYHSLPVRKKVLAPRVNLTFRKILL
Type: biochemical
Protocol: as §1, §2, §3, §4, §5

**Q.** How did the IC50 turn out when `O=C(O)C=CC(=O)NNC(=O)c1cc(Cc2ccccc2)ccn1` [Compound 22] was run?
**A.** 39.9 µM

**Q.** How did the IC50 turn out when `O=C(O)/C=C/C(=O)NNC(=O)c1cnccc1Cc1ccccc1` [Compound 12] was run?
**A.** 25.9 µM

**Q.** How did the IC50 turn out when `O=C(O)/C=C/C(=O)NNC(=O)c1cccnc1` [Compound 21] was run?
**A.** 152 µM and > 100 µM

**Q.** With `O=C(O)/C=C/C(=O)NNC(=O)c1ccccn1` [Compound 23] as the compound, how does the IC50 read?
**A.** 127 µM

The compounds below were run against T1, ALKBH3 (assay: MALDI-based inhibition assay for ALKBH3). Conditions: 8-mer ssDNA substrate.
Type: biochemical
Protocol: MALDI-based inhibition assays for ALKBH3
An 8-mer m1A-ssDNA substrate with the sequence 5’-CAG(m1A)ATTC-3’ (Yale University, W.M. Keck Foundation Biotechnology Resource Laboratory) was used in this inhibition assay. The assay was performed in triplicate for each inhibitor, in a final reaction volume of 25 µL. Reaction consisted of ALKBH3 (2 µM), 2OG (150 µM), (NH4)2Fe(SO4)2·6H2O (150 µM), L-ascorbate (2 mM), […] (100 µM), in 50 mM HEPES buffer, pH 7.5, and inhibitor at various concentrations (final DMSO concentration not more than 1% v/v of assay mix). The reaction was incubated at room temperature for 30 min, before 1:1 quenching with 20% v/v formic acid. 1 uL of the diluted assay mixture was then mixed with 1 uL of 3-hydroxpicolinic acid (3-HPA, the MALDI-TOF-MS matrix, Sigma-Aldrich) and spotted onto the MALDI-TOF-MS plate before analysis. The 3-HPA matrix was prepared by mixing 9 parts of 50 mg/mL 3-hydroxpicolinic acid in 50% MeCN/Milli-Q H2O with 1 part of 50 mg/mL ammonium citrate in Milli-Q H2O.
The percentage inhibition was estimated based on the relative intensities of the methylated substrate and the demethylated product observed in the mass spectra. […]
Reaction consisted of PHD2 (4 µM), 2OG (150 µM),

**Q.** How did the IC50 turn out when `O=C(O)C=CC(=O)NNC(=O)c1cc(Cc2ccccc2)ccn1` [Compound 22] was run?
**A.** 53.5 µM

**Q.** `O=C(O)/C=C/C(=O)NNC(=O)c1cnccc1Cc1ccccc1` [Compound 12] was tested. Which IC50 did it give?
**A.** 66.2 µM

**Q.** For `O=C(O)/C=C/C(=O)NNC(=O)c1cccnc1` [Compound 21], which IC50 is on record?
**A.** 115 µM

**Q.** How did the IC50 turn out when `O=C(O)/C=C/C(=O)NNC(=O)c1ccccn1` [Compound 23] was run?
**A.** 168 µM
